Data: patent publication US20100092456A1, “METHODS OF TREATMENT” (priority 2006, published 2010)

Legend:
[1] = test system: PtdIns4P and PtdIns5P in the CEF of MEL cells; experiment: Mass assay of PtdIns4P and PtdIns5P in the CEF of MEL cells with or without UV irradiation; type: cell-based, Murine; details: MEL cells preincubated with wortmannin (200 nM and 5 μM) or curcumin (100 μM); 200 J/m UV; CEF after 30 minutes
Procedure: (§1) D) MEL cells were preincubated with either vehicle (DMSO) or wortmannin (200 nM and 5 μM) were irradiated with 200 J/m of UV light. After 30 minutes the CEF was isolated and a mass assay was used to determine the levels of PtdIns4P and PtdIns5P (expressed as % of control non-irradiated cells. The results are calculated from 3 independent experiments).
as §1, with “E)” for “D)”, “(ethanol)” for “(DMSO)”, “curcumin (100” for “wortmannin (200 nM and 5”, “irradiation.” for “light.”, “control, non curcumin-treated nor non UV-irradiated” for “control non-irradiated”
C) MEL cells were transiently transfected to express EGFP, EGFP-type II b PIP kinase and EGFP-IpgD/IpgE. In addition MEL cells were transfected with pSuper-IIβRNAi. […] A mass assay was used to determine the level of PtdIns5P (expressed as % of control non-irradiated cells. The results are calculated from 3 independent experiments). […]
MEL cells were washed, twice in ice cold PBS before their fractionation using a detergent-free hypotonic buffer. […] The protein content of all fractions was determined using the Bradford reagent (BioRad). PtdIns4P and PtdIns5P were measured using in vitro mass assays employing recombinant type I and type II PIP kinases, respectively. […]

MEL cells = experiment: MEL cell viability and cell cycle profile; type: cell-based, Murine
Procedure: Ethanol fixed cells were incubated with prodium iodide (20 μg/ml) and RNAse (10 μg/ml) before cell cycle analysis by flow cytometry. Proteins were analysed by standard western blotting procedures employing the following antibodies: anti-tubulin and anti-flag (both from Sigma), anti-actin (Chemicon International), anti-histone 4 (Upstate Biotechnology), anti-phospho p54, anti-phospho p46, anti-phospho p38, total p54, total p46 and total p38 (all from Cell Signalling Technology) anti-ING2, anti EGFP (Clontech), anti-type II β PIP kinase, anti-GST and anti-myc (both generated in house).
To investigate the sub-nuclear localisation of UV-induced nuclear PtdInsPs, we fractionated nuclei to generate nucleoplasm (containing nuclear membranes and soluble nuclear material) and the chromatin enriched fraction (CEF) (FIG. 1c inset). […] Thus, the PtdInsP pool present in the CEF is a target for regulation in response to cellular stress.

ING2 = experiment: Western blot of endogenous ING2 associated with the CEF of MEL cells; type: cell-based, Murine; details: MEL cells; 200 J/m UV; NAC 5 mM 4 hours, wortmannin 200 nM and 5 μM, curcumin 100 μM
Procedure: FIG. 4. A) Exponentially growing MEL cells were irradiated with either 200 J/m of UV light or 10 Gy of gamma radiation. After 30 minutes the CEF was isolated and the subjected to SDS-PAGE followed by transfer of the separated proteins to a nitrocellulose membrane. Western blotting for endogenous ING2 and histone 4 proteins was performed. Representative western blots are shown. B) Exponentially growing MEL cells were incubated in the absence or presence of N-acetyl cysteine (NAC) (5 mM) for 4 hours prior to a control irradiation or exposed to 200 J/m of UV light before the isolation of the CEF. Differentiated MEL cells were incubated in the absence or presence of H2O2 (500 μM) for 15 minutes prior to the isolation of the CEF. Proteins in the CEF were subjected to SDS-PAGE followed by transfer to a nitrocellulose membrane. Western blotting for endogenous ING2 and histone 4 proteins was performed. Representative western blots are shown. C) MEL cells were preincubated with either vehicle, wortmannin (200 nM and 5 μM) or curcumin (100 μM) were irradiated with 200 J/m of UV light. After 30 minutes the CEF was isolated and proteins were subjected to SDS-PAGE followed by transfer to a nitrocellulose membrane. Western blotting for endogenous ING2 and histone 4 proteins was performed. Representative western blots are shown. D) The CEF from transiently transfected MEL cells with either pSuper or pSuper-IIβRNAi was prepared. Proteins in the CEF were subjected to SDS-PAGE followed by transfer to a nitrocellulose membrane. […] Proteins were analysed by standard western blotting procedures employing the following antibodies: anti-tubulin and anti-flag (both from Sigma), anti-actin (Chemicon International), anti-histone 4 (Upstate Biotechnology), anti-phospho p54, anti-phospho p46, anti-phospho p38, total p54, total p46 and total p38 (all from Cell Signalling Technology) anti-ING2, anti EGFP (Clontech), anti-type II β PIP kinase, anti-GST and anti-myc (both generated in house).

PIKfyve = PIKfyve (Homo sapiens, UniProt Q9Y2I7); details: background statement; cited from earlier work
Sequence of PIKfyve (Q9Y2I7 whole entry, species assumed): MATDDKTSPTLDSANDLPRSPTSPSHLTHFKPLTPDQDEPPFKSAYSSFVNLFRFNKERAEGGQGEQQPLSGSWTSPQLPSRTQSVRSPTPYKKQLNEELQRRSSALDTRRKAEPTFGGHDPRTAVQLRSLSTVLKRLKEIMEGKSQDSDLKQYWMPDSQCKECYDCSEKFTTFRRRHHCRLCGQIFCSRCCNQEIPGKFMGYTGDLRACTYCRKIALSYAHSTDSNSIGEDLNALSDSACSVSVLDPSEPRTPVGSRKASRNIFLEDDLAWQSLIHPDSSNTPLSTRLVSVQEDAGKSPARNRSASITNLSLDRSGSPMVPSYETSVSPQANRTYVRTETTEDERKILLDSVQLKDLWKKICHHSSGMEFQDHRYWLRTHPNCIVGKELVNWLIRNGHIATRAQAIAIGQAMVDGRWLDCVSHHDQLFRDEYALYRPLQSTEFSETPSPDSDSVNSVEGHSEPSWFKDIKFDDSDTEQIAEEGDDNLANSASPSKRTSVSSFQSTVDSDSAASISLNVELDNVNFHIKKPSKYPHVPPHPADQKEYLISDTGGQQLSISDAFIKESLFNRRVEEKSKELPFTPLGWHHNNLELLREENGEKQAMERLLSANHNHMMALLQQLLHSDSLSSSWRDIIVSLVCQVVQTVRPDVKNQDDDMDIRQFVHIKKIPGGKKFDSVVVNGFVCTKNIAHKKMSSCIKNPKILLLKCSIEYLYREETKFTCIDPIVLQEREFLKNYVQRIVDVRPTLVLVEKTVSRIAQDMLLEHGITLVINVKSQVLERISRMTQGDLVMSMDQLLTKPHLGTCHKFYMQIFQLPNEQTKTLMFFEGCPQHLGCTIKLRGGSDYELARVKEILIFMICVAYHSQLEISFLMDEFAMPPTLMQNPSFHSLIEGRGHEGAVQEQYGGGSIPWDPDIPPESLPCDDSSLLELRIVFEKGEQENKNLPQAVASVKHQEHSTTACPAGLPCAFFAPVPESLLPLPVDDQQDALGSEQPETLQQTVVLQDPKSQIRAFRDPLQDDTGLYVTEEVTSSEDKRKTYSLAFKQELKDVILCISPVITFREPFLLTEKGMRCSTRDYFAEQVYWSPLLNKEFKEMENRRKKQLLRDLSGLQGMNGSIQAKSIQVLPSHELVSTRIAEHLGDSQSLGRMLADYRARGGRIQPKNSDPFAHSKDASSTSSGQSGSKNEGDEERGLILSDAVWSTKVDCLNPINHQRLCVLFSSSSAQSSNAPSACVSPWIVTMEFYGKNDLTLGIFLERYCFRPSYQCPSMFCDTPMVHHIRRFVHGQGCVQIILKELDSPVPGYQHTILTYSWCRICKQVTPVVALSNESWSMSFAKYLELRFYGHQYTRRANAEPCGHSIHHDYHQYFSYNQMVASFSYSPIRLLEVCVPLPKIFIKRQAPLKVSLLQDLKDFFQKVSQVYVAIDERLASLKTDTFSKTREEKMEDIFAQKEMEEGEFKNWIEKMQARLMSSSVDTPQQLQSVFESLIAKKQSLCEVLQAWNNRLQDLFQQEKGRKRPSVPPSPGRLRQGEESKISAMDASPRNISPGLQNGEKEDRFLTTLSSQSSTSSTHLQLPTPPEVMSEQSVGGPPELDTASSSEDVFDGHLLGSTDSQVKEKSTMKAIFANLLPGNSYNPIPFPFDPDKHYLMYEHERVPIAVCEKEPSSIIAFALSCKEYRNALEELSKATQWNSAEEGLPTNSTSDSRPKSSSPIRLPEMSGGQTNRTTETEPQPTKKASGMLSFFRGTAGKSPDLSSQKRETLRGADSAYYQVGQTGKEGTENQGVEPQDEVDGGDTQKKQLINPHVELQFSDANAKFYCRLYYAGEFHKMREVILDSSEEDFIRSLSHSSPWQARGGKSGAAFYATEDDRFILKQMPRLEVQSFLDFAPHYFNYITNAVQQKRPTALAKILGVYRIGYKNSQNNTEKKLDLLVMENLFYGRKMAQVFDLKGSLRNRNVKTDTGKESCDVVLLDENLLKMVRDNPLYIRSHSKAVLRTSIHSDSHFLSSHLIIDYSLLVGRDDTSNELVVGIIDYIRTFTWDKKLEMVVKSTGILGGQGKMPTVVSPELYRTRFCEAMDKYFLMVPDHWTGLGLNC

SMILES: COc1cc(/C=C/C(=O)CC(=O)/C=C/c2ccc(O)c(OC)c2)ccc1O [curcumin]
- UV light-induced accumulation of PtdIns4P [1]: inhibited
- UV light-induced accumulation of PtdIns5P [1]: inhibited
- effect on MEL cell viability (MEL cells): no effect
- effect on the cell cycle profile (MEL cells; MEL cells, compound alone): no effect
- UV-induced translocation of endogenous ING2 to the CEF (ING2): completely inhibited
- inhibition of PIKfyve (PIKfyve): able to inhibit
